Measured values from patent US20240090547A1, “SWEETENER COMPOSITIONS COMPRISING MOGROSIDES AND USES THEREOF” (Firmenich Incorporated, priority 2021, published 2024).

Key:
Type in all cases: in vivo, human
[1] = tested on: panel of volunteers; experiment: Sensory testing for lemon-lime carbonated soft drink; parameters: key to Sweetness / Delayed Sweetness / Bitterness / Lingering Sweetness / Overall Off-Taste / Licorice Aftertaste / Bitterness Aftertaste: 10-point scale; scores normalized to average Reb M scores; conditions: 600 ppm (mogroside V 600 mg [sic]), average normalized score, 10-point scale
Experimental: (§1) A panel of volunteers evaluated siamenoside I for in-mouth attributes (sweetness, delayed sweetness, sourness, bitterness, global flavor intensity, thickness/body, and astringence) and aftertaste (AT) attribtues (lingering sweetness, overall off-taste intensity, licorice off-tast, bitterness off-taste, and mouth coating) on a 10-point scale. Two replicate sessions were conducted, with a 20 minute break between sessions. There was a 90 second delay between samples within a session. Panelists evaluated all samples in a first session and evaluated the samples again a second time in a second session. Control samples of Rebaudioside M (Reb M) were evaluated during all sessions as a control. Mogroside V was also evaluated and sensory data for mogroside V is provided.
(§2) Data analysis was performed using 2-way analysis of variance (ANOVA) with interaction using Tukey's HSD test. The data was normalized for each attribute according to average scores for Reb M.
A panel of volunteers evaluated the siamenoside I-containing lemon-lime carbonated soft drink for in-mouth attributes and aftertaste attributes according to the methods described in Example 1 above.
The average normalized in-mouth attributes for a sample of lemon-lime carbonated soft drink having […] was evaluated below.
The average normalized aftertaste attributes for a sample of lemon-lime carbonated soft drink having siamenoside I was evaluated below.

[2] = tested on: panel of volunteers; experiment: Sensory testing for vanilla milk; conditions: average normalized score, 10-point scale; for Licorice Aftertaste / Lingering Sweetness / Mouth Coating / Overall Off-Taste: aftertaste
Experimental: as §1, §2
A panel of volunteers evaluated vanilla milk for in-mouth attributes and aftertaste attributes according to the methods described in Example 1 above.
The average normalized in-mouth attributes for each sample of vanilla milk was evaluated and the results are provided below.
The average normalized aftertaste attributes for each sample of vanilla milk containing siamenoside I was evaluated and the results are provided below.

[3] = tested on: panel of volunteers; experiment: Sensory testing for sparkling orange beverage; conditions: sparkling orange beverage, 250 ppm (mogroside V 250 mg [sic]), average normalized score, 10-point scale
Experimental: as §1, §2
A panel of volunteers evaluated a sparkling orange beverage containing siamenodie I for in-mouth attributes and aftertaste attributes according to the methods described in Example 1 above.
The average normalized in-mouth attributes for a sample of sparkling orange beverage containing siamenoside I was evaluated and the results are provided below.
The average normalized aftertaste attributes for a sample of sparkling orange beverage containing siamenoside I was evaluated and the results are provided below.

[4] = tested on: panel of volunteers; experiment: Sensory testing for apple drink (panel, in-mouth and aftertaste attributes); parameters: key to Sweetness / Delayed Sweetness / Bitterness / Lingering Sweetness / Overall Off-Taste / Licorice Aftertaste / Bitterness Aftertaste / Mouth Coating: 10-point scale; normalized per attribute to average Reb M scores; conditions: 10-point scale; for Bitterness / Delayed Sweetness / Global Flavor Intensity / Sweetness / Thickness/Body: in-mouth, average normalized score
Experimental: as §1, §2
The average normalized in-mouth attributes for each sample of apple drink containing siamenoside I was evaluated below.
The average sweetness for each sample of apple drink containing siamenoside I was evaluated below.

[5] = 200 ppm (mogroside V 200 mg [sic])
[6] = 200 ppm (mogroside V 200 mg [sic]), in-mouth
[7] = 400 ppm (mogroside V 400 mg [sic])
[8] = 400 ppm (mogroside V 400 mg [sic]), in-mouth
[9] = 250 ppm (mogroside V 250 mg [sic]), aftertaste
[10] = 250 ppm (mogroside V 250 mg [sic])
[11] = 500 ppm (mogroside V 500 mg [sic]), aftertaste
[12] = 500 ppm (mogroside V 500 mg [sic])

Q: For C=C1C[C@@]23CC[C@H]4[C@@](C)(CCC[C@@]4(C)C(=O)O[C@@H]4O[C@H](CO)[C@@H](O)[C@H](O[C@@H]5O[C@H](CO)[C@@H](O)[C@H](O)[C@H]5O)[C@H]4O[C@@H]4O[C@H](CO)[C@@H](O)[C@H](O)[C@H]4O)[C@@H]2CC[C@]1(O[C@@H]1O[C@H](CO)[C@@H](O)[C@H](O[C@@H]2O[C@H](CO)[C@@H](O)[C@H](O)[C@H]2O)[C@H]1O[C@@H]1O[C@H](CO)[C@@H](O)[C@H](O)[C@H]1O)C3 [Reb M, Rebaudioside M], which “Bitterness Aftertaste” value ([1]; aftertaste) is on record?
A: 1.4

Q: What about the “Licorice Aftertaste” value ([1]; aftertaste) of the same compound?
A: 2.5

Q: What about the “Lingering Sweetness” value ([1]; aftertaste) of the same compound?
A: 4.3

Q: And the “Overall Off-Taste” value ([1]; aftertaste)?
A: 3.6

Q: And the Bitterness ([1]; in-mouth)?
A: 1.9

Q: What about the “Delayed Sweetness” value ([1]; in-mouth) of the same compound?
A: 3.3

Q: And the “Global Flavor Intensity” value ([1]; in-mouth)?
A: 4.8

Q: And the Sweetness ([1]; in-mouth)?
A: 6.0

Q: What about the “Licorice Aftertaste” value [2, 5] of the same compound?
A: 0.8

Q: What about the “Lingering Sweetness” value [2, 5] of the same compound?
A: 2.6

Q: And the “Mouth Coating” value [2, 5]?
A: 3.1

Q: What about the “Overall Off-Taste” value [2, 5] of the same compound?
A: 1.8

Q: And the Astringence [2, 6]?
A: 0.6

Q: What about the “Delayed Sweetness” value [2, 6] of the same compound?
A: 1.7

Q: What about the Fattiness [2, 6] of the same compound?
A: 3.3

Q: And the Sourness [2, 6]?
A: 0.7

Q: And the Sweetness [2, 6]?
A: 4.9

Q: And the “Licorice Aftertaste” value [2, 7]?
A: 1.3

Q: And the “Lingering Sweetness” value [2, 7]?
A: 3.8

Q: What about the “Mouth Coating” value [2, 7] of the same compound?
A: 0.7

Q: What about the “Overall Off-Taste” value [2, 7] of the same compound?
A: 2.1

Q: What about the Astringence [2, 8] of the same compound?
A: 0.6

Q: And the Bitterness [2, 8]?
A: 0.8

Q: And the “Delayed Sweetness” value [2, 8]?
A: 2.2

Q: What about the Fattiness [2, 8] of the same compound?
A: 3.8

Q: What about the “Global Flavor Intensity” value [2, 8] of the same compound?
A: 4.6

Q: What about the Sourness [2, 8] of the same compound?
A: 0.7

Q: What about the Sweetness [2, 8] of the same compound?
A: 6.6

Q: And the “Licorice Aftertaste” value ([3]; aftertaste)?
A: 2.2

Q: And the “Lingering Sweetness” value ([3]; aftertaste)?
A: 3.9

Q: And the “Mouth Coating” value ([3]; aftertaste)?
A: 2.5

Q: And the “Overall Off-Taste” value ([3]; aftertaste)?
A: 3.3

Q: And the “Delayed Sweetness” value ([3]; in-mouth)?
A: 3.3

Q: What about the Sweetness ([3]; in-mouth) of the same compound?
A: 5.8

Q: And the “Bitterness Aftertaste” value [4, 9]?
A: 1.1

Q: What about the “Licorice Aftertaste” value [4, 9] of the same compound?
A: 2.0

Q: What about the “Lingering Sweetness” value [4, 9] of the same compound?
A: 3.7

Q: And the “Overall Off-Taste” value [4, 9]?
A: 2.9

Q: What about the Bitterness [4, 10] of the same compound?
A: 1.4

Q: What about the “Delayed Sweetness” value [4, 10] of the same compound?
A: 2.5

Q: And the “Global Flavor Intensity” value [4, 10]?
A: 4.0

Q: What about the Sweetness [4, 10] of the same compound?
A: 4.9

Q: What about the Thickness/Body [4, 10] of the same compound?
A: 1.5

Q: What about the “Licorice Aftertaste” value [4, 11] of the same compound?
A: 2.2

Q: What about the “Lingering Sweetness” value [4, 11] of the same compound?
A: 4.4

Q: What about the “Mouth Coating” value [4, 11] of the same compound?
A: 2.2

Q: What about the “Overall Off-Taste” value [4, 11] of the same compound?
A: 3.1

Q: And the Bitterness [4, 12]?
A: 1.3

Q: And the “Delayed Sweetness” value [4, 12]?
A: 3.0

Q: And the “Global Flavor Intensity” value [4, 12]?
A: 4.7

Q: What about the Sweetness [4, 12] of the same compound?
A: 6.1

Q: And the Thickness/Body [4, 12]?
A: 1.9
